“And” between values parts separate entries of the source, which are not always exact repeats. Equal values may be shown once.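 The compound was tested at five concentrations on cells cultured in 96-well plates, with a 48-hour exposure period. GI50 = concentration required for 50% inhibition of growth. At the TGI there is no net growth.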

Holding throughout (assay): inhibition of tumour cell growth, NCI panel, 48 h
Test [1] deals with UO-31 renal.
Test [2] relates to U251 CNS.
The subject of test [3] is HCT-116 colon.
The subject of test [4] is UACC-257 melanoma.
Test [5] deals with TK-10 renal.
For test [6], the system named is SR leukemia.
For test [7], the system named is SW-620 colon.
Test [8] deals with SNB-75 CNS.
Test [9] has as its system SK-MEL-28 melanoma.
Test [10] has as its system OVCAR-8 ovarian.

With `Nc1c(C(=O)c2cccc(OCCN3CCOCC3)c2)cnn1-c1ccc(F)cc1`, the GI50 in test [1], in [2], in test [3], in test [4], in test [5] and in test [6] was more than 25 µM throughout. The GI50 in [7], in [8], in [9] and in [10] was more than 25 µM each time. Also, the TGI in [1], in [2], in test [3], in [4], in test [5] and in test [6] was more than 25 µM each time. Besides, the TGI in [7], in test [8], in test [9] and in test [10] was more than 25 µM throughout.
Regarding `O=C1/C(=C/c2ccccc2)SC(=Nc2ccccc2)N1Nc1ccccc1`, the GI50 in test [1] was 7.94 µM; in test [2], 12.9 µM; in test [3] it was 4.49 µM; in test [4] it was 14.2 µM; in test [5], 36.5 µM; in [6], 21.3 µM. Further, the GI50 in [7] was 17.6 µM; in test [9], 16.2 µM; in test [10] it was 27.3 µM. Besides, the TGI in test [1], in [2], in [3], in test [4], in [5] and in [6] was more than 100 µM in each case. The TGI was more than 100 µM in test [7], 71 µM in [9] and more than 100 µM in test [10].
For the compound `C=C1C(=O)O[C@H]2[C@H]1CC/C(COC(=O)C(=O)c1c[nH]c3ccc(OC)cc13)=C\CC[C@@]1(C)O[C@@H]21`, the GI50 in test [1] was 4.6 µM; in [2], 7.06 µM; in test [3], 4.48 µM; in test [4], 6.53 µM; in test [5], 6.41 µM; in [6] it was 3.29 µM. Further, the GI50 was 4 µM in test [7], 6.13 µM in [8], 5.05 µM in test [9] and 6.88 µM in [10]. Also, the TGI in test [1] was determined as 7.91 µM; in [2] it was 10.8 µM; in [3] it was 8.73 µM; in test [4], 12.1 µM; in test [5] it was 14.5 µM; in test [6] it was 29 µM. For the same compound, the TGI came out at 16.2 µM in [7], 10.4 µM in test [8], 9.55 µM in [9] and 19.4 µM in [10].
Regarding `CS(=O)(=O)N1CCN(Cc2cc3nc(-c4cccc5[nH]ncc45)nc(N4CCOCC4)c3s2)CC1` (tested in a mixture with another compound), the GI50 in test [1] was 0.0493 µM; in test [2], 0.213 µM; in test [3], 0.149 µM; in test [4], 0.0608 µM; in [5] it was 0.129 µM; in test [6], 0.194 µM. Moreover, the GI50 is 0.824 µM in test [7], 0.021 µM in test [8], 0.21 µM in [9] and 0.154 µM in [10]. Further, the TGI was 0.292 µM in test [1], 0.42 µM in test [4], more than 100 µM in [7] and 0.164 µM in [8].
As for `Cc1cc(=O)oc2cc(OC(=O)Nc3ccc(Cl)c(Cl)c3)ccc12`, the TGI in [1] was 72.7 µM; in [2], 56.8 µM; in [3], 40.7 µM; in [4] it was 84.2 µM; in test [5] it was more than 100 µM; in test [6] it was 46.3 µM. Further, the TGI in test [7] worked out at 48.1 µM; in test [8] it was 67.3 µM; in test [9], 67.3 µM; in test [10] it was 54.8 µM.
Consider `COc1ccc(-c2cnc(-c3ccc(F)cc3)[nH]2)cc1`, for which the GI50 in [1] is 6.59 µM; in [2], 6.3 µM; in test [3], 1.36 µM; in [4], 5.17 µM; in test [5], 2.58 µM; in [6], 2.41 µM. The GI50 in test [7] is 1.91 µM; in test [8] it was 4.26 µM; in test [9], 3.69 µM; in test [10], 7.85 µM. The TGI in test [1] came out at 20.4 µM; in test [2], 17.2 µM; in test [3] it was 3.39 µM; in test [4] it was 17.2 µM; in test [5], 8.81 µM; in test [6], 6.27 µM. Moreover, the TGI in test [7] was 3.99 µM; in test [8] it was 10.7 µM; in test [9], 8.5 µM; in [10] it was 21.1 µM.
For `COc1ccc(NC(=O)C(=O)NNC(=O)c2sc(NNC(C)=O)nc2C)c([N+](=O)[O-])c1`, the TGI in test [1], in test [2], in [3], in [4], in [5] and in test [6] was more than 100 µM in each case. Besides, the TGI in test [7], in test [9] and in [10] was more than 100 µM throughout.
Regarding `C=C(CN1CCN(c2cccc(C(F)(F)F)c2)CC1)c1ccc(C(=O)Nc2ccccc2N)cc1`, the GI50 in [1] is 2.4 µM; in test [2], 1.18 µM; in test [3], 1.14 µM; in test [4], 0.762 µM; in [5] it was 0.807 µM; in [6], 0.0568 µM. The figures for the GI50 in test [7], in test [9] and in test [10] were 1.28 µM, 3.4 µM and 1.4 µM, respectively. Further, the TGI is 12.1 µM in [1]; 5.84 µM in [2]; 11.7 µM in [3]; 17.8 µM in test [4]; 5.31 µM in test [5]; more than 50 µM in test [6]. The TGI in [7] was 15.9 µM; in test [9], more than 27.2 µM; in test [10] it was 17.2 µM.
Turning to `N#C/C(=C/C=C(\Cl)c1ccc(Cl)cc1)C(N)=O`, the TGI in test [1] is more than 46.8 µM; in [2], 5.32 µM; in test [3], 1.49 µM; in test [4], 11.4 µM; in [5] it was 3.31 µM; in test [6] it was 20.4 µM. In addition, the figures for the TGI in test [7], in test [9] and in [10] were 4.53 µM, 9.88 µM and 12.6 µM, respectively. In addition, the GI50 is 2.29 µM in test [2]; 0.402 µM in test [3]; 6.17 µM in test [4]; 1.61 µM in [5]; 2.26 µM in test [6]; 2.1 µM in [7]. Moreover, the GI50 was 3.28 µM in test [9] and 6.39 µM in test [10].
Consider `Cc1cc(O)c2c(c1)C(=O)c1cc(O)cc(O)c1C2=O`, for which the TGI in test [2] is more than 96.3 µM; in test [3], more than 58.9 µM; in test [4], more than 100 µM; in test [5], more than 81.1 µM; in test [6], 68 µM; in [7] it was more than 100 µM. For the same compound, the TGI was more than 81.6 µM in test [8], more than 82.9 µM in test [9] and more than 100 µM in test [10]. Besides, in test [10], the GI50 was 34.3 µM.
Regarding `O=C(Nc1cnn2ccc(N3CCC[C@@H]3c3cc(F)ccc3F)nc12)N1CC[C@H](O)C1`, the GI50 in test [1], in [2], in test [3], in test [5], in [6] and in test [7] was more than 100 µM each time. Moreover, the GI50 in test [8], in test [9] and in test [10] was more than 100 µM each time. Further, the TGI in test [1], in test [2], in test [3], in [5], in test [6] and in [7] was more than 100 µM each time. Further, the TGI in [8], in test [9] and in test [10] was more than 100 µM throughout.
With `Cc1ccc(S(=O)(=O)CNC(=S)CCCC(=S)NCS(=O)(=O)c2ccc(C)cc2)cc1`, the TGI in [1], in test [2], in test [3], in [4], in test [5] and in [6] was more than 100 µM throughout. In addition, the TGI in test [7], in test [8] and in test [10] was more than 100 µM each time.
Take `C(CCc1nnc2c(n1)CCCC2)Cc1nnc2c(n1)CCCC2`: the TGI in test [1], in test [2], in [3], in test [5], in test [6] and in test [7] was more than 100 µM in each case. Further, the TGI in [8], in [9] and in [10] was more than 100 µM each time.
Turning to `COc1c2ccccc2c(O)c2c(=O)c(C(=O)O)cn(C)c12`, the GI50 in test [1], in [2], in test [3], in test [4], in test [6] and in test [7] was more than 100 µM throughout. Further, the GI50 in test [8] was more than 100 µM; in test [9], 65 µM; in test [10], more than 100 µM. Further, the TGI in test [1], in test [2], in [3], in test [4], in test [6] and in test [7] was more than 100 µM throughout. Further, the TGI in [8], in test [9] and in [10] was more than 100 µM throughout.
Take `CC[C@@]1(O)C(=O)OCc2c1cc1n(c2=O)Cc2cc3cc(OC)ccc3nc2-1`: the GI50 in [1] was 0.249 µM; in test [3], 0.0442 µM; in [4], 0.0998 µM and 0.17 µM; in test [6] it was 0.00461 µM; in test [7] it was 0.0391 µM; in test [9], 0.894 µM. Further, in [10], the GI50 is 0.0153 µM and 0.0239 µM. Besides, the TGI in test [2] was 0.0541 µM; in test [3], 0.573 µM and 0.481 µM; in test [4] it was 1.54 µM; in test [7], 4.79 µM; in test [8], 0.0491 µM; in [10], 0.297 µM and 0.35 µM.
As for `CN(C)c1ccc(/C=C2\CNC/C(=C\c3ccc(N(C)C)cc3)C2=O)cc1`, the TGI in test [1] was more than 100 µM; in [2], 28.7 µM; in test [3], 35.1 µM; in test [4] it was more than 100 µM; in test [5] it was more than 100 µM; in test [6], 82.8 µM. Besides, the TGI in [8] came out at 27.2 µM; in test [9], 42 µM; in [10], 43.7 µM.
`Cc1ccc(S(=O)(=O)Oc2ccc3c4c(c(=O)oc3c2)CCCCC4)cc1`: the GI50 was more than 100 µM in test [1]; more than 100 µM in [2]; 6 µM in test [3]; more than 100 µM in [5]; 3.3 µM in test [6]; 71.4 µM in test [8]. Moreover, the GI50 in [9] and in test [10] was more than 100 µM in each case. The TGI in test [1], in test [2], in [3], in [5], in test [6] and in test [8] was more than 100 µM each time. For the same compound, the TGI in test [9] and in test [10] was more than 100 µM throughout.
`COC(=O)[C@]12CC[C@@H](C)[C@H](C)[C@@H]1C1=CC[C@@H]3[C@@]4(C)C(C=O)=C[C@@](C)(COC(C)=O)[C@@H]4[C@H](O)C[C@@]3(C)[C@]1(C)CC2`: the GI50 was 1.57 µM in test [1]; 1.92 µM in [2]; 2.02 µM in [4]; 2.73 µM in [5]; 1.84 µM in [6]; 2.66 µM in [7]. For the same compound, the GI50 is 1.74 µM in [8], 2.16 µM in test [9] and 3.03 µM in [10]. Further, the TGI in test [1] turned out to be 3.84 µM; in [2], 4.36 µM; in test [4], 4.8 µM; in test [5] it was 8.77 µM; in test [6] it was 5.4 µM; in test [7], 8.21 µM. Also, the TGI is 10.5 µM in [8], 4.92 µM in test [9] and 10.4 µM in test [10].

(Values after PubChem BioAssay (NCI).)
